Source: article PMC9275698, “Morindone from Morinda citrifolia as a potential antiproliferative agent against colorectal cancer cell lines” (PLoS ONE, 2022)
Where a name gives a salt, the structure may show the parent alone.

Key:
HCT116 cells = assay: MTT cell cytotoxicity assay, HCT116; format: cell-based, human; details: for IC50: MTT, 72 hours, mean ± SD; for Selectivity index (SI) HCT116: IC50 in normal cells (CCD841 CoN) / IC50 in HCT116
Procedure: (§1) Three human colorectal cancer cell lines: HT29 cells (colorectal adenocarcinoma with p53 and APC mutation), LS174T cells (colorectal adenocarcinoma with KRAS mutation) and HCT116 cells (colorectal carcinoma with KRAS mutation) as well as normal colon, CCD841 CoN cells were obtained from American Type Cell Culture (Manassas, VA, USA). All cell lines were cultured in an incubator under the condition of 37°C temperature, humidified 5% CO2 air atmosphere. Cells were maintained in Dulbecco’s Modified Eagle Medium (DMEM) (Corning, NY, USA), supplemented with 10% Fetal Bovine Serum (FBS) (Sigma-Aldrich, St Louis, MO, USA), 25mM HEPES (Sangon Biotech, Shanghai, China) and 1% Penicillin/Streptomycin (Merck, Germany).
(§2) HCT116 wells were seeded at 7,500 cells/well while other cells were seeded at 30,000 cells/well in 96 well plates and allowed for 24 hours incubation. Cells were then treated with anthraquinone compounds at series of 2-fold dilution concentrations (50μM, 25μM, 12.5μM, 6.25μM, 3.12μM, 1.56μM, 0.78μM, 0.39μM) for 72 hours. 5-fluorouracil and DOX were used as positive controls in the treatment. Cell cytotoxicity was measured using the MTT Cell Count kit according to the manufacturer’s protocol. Assay was performed in triplicates and repeated in three individual experiments. The absorbance (A) was measured with microplate reader at 570nm wavelength and normalized to control. The half-maximal inhibitory concentration (IC50) value was determined using GraphPad Prism 8 software (GraphPad Software, Inc., CA, USA). Cell viability was calculated as follows: […]

LS174T cells = assay: MTT cell cytotoxicity assay, LS174T; format: cell-based, human; details: for IC50: Homo sapiens, LS174T, MTT, 72 hours, mean ± SD; for Selectivity index (SI) LS174T: IC50 in normal cells (CCD841 CoN) / IC50 in LS174T
Procedure: as §1, §2

HT29 cells = assay: MTT cell cytotoxicity assay, HT29; format: cell-based, human; details: for IC50: Homo sapiens, HT-29, MTT, 72 hours, mean ± SD; for Selectivity index (SI) HT29: IC50 in normal cells (CCD841 CoN) / IC50 in HT29
Procedure: as §1, §2

CCD841 CoN cells = assay: MTT cell cytotoxicity assay, normal colon cells; format: cell-based; details: Homo sapiens, CCD-841CoN, 72 hours
Procedure: as §1, §2

[1] = tested on: MCF-7 cells (breast cancer); details: cited from earlier work
[2] = tested on: HCT116 cells (colorectal cancer); details: cited from earlier work
[3] = tested on: HepG2 cells (hepatocellular carcinoma); details: cited from earlier work
C. lipolytica = tested on: C. lipolytica; set-up: method as in PMID 21214480; details: cited from earlier work
[4] = tested on: oxacillin-resistant Staphylococcus aureus; set-up: method as in PMID 20521552; details: cited from earlier work

melting point | SMILES | IC50 (HCT116 cells; Homo sapiens, HCT-116, 72 h) | Selectivity index (SI) HCT116 (HCT116 cells) | IC50 (HCT116 cells) | IC50 (LS174T cells) | Selectivity index (SI) LS174T (LS174T cells) | IC50 (HT29 cells) | Selectivity index (SI) HT29 (HT29 cells) | IC50 (CCD841 CoN cells) | IC50 (HCT116 cells; listed as damnacanthal) | Anticancer and antitumor activities towards MCF-7 cells [1] | Anticancer and antitumor activities towards HCT116 cells [2] | Anticancer and antitumor activities towards HepG2 cells [3] | IC50 (HCT116 cells; listed as morindone) | Antimicrobial activity against C. lipolytica (C. lipolytica) | Antimicrobial activity against oxacillin-resistant Staphylococcus aureus [4]
235 to 239 °C | COc1c(O)cc2c(c1O)C(=O)c1ccc(C)c(O)c1C2=O [1,3,5-trihydoxy-2-methoxy-6-methyl anthraquinone] | < 25 µM | 4.55 | 24.57 ± 0.07 µM | > 50 µM | 0.97 | > 50 µM | 0.03 | > 50 µM | – | – | – | – | – | – | –
– | O=c1[nH]cc(F)c(=O)[nH]1 [5-Fluorouracil, 5-fluorouracil, reference compound] | 5 ± 0.04 µM | – | – | 4.16 ± 0.02 µM | – | 0.2 ± 0.05 µM | – | – | – | – | – | – | – | – | –
– | COc1c(C=O)c(O)cc2c1C(=O)c1ccccc1C2=O [Damnacanthal (2), Damnacanthal] | – | 951.60 | 0.74 ± 0.06 µM | > 50 µM | 0.28 | 28.17 ± 0.08 µM | 24.85 | > 50 µM | < 25 µM | Good anticancer and antitumor activities | Good anticancer and antitumor activities | Good anticancer and antitumor activities | – | – | –
156 to 158 °C | COc1c(CO)c(O)cc2c1C(=O)c1ccccc1C2=O [Damnacanthol (7), Damnacanthol] | < 25 µM | – | 18.47 ± 0.02 µM | > 50 µM | 0.59 | > 50 µM | 1.46 | > 50 µM | – | – | – | – | – | – | –
– | COc1cccc2c1C(=O)c1c(O)c3c(c(O)c1C2=O)C[C@@](O)(C(=O)CO)C[C@@H]3O[C@H]1C[C@H](N)[C@H](O)[C@H](C)O1 [Doxorubicin hydrochloride, doxorubicin hydrochloride, reference compound] | 0.17 ± 0.04 µM | – | – | 2.27 ± 0.04 µM | – | 0.3 ± 0.06 µM | – | – | – | – | – | – | – | – | –
170 to 173 °C | COCc1c(O)cc2c(c1O)C(=O)c1ccccc1C2=O [Lucidin-ω-methylether (8), Lucidin-ω-methylether] | < 25 µM | – | 14.88 ± 0.01 µM | > 50 µM | – | > 50 µM | – | > 50 µM | – | – | – | – | – | – | –
– | Cc1ccc2c(c1O)C(=O)c1ccc(O)c(O)c1C2=O [Morindone (4), Morindone] | – | 76.25 | 10.7 ± 0.04 µM | 20.45 ± 0.03 µM | 39.89 | 19.2 ± 0.05 µM | 42.49 | > 50 µM | – | – | – | – | < 25 µM | strong antimicrobial activity | strong antimicrobial activity
219 to 222 °C | O=Cc1c(O)cc2c(c1O)C(=O)c1ccccc1C2=O [Nordamnacanthal (1), Nordamnacanthal] | > 50 µM | 0.97 | – | > 50 µM | 4.79 | > 50 µM | 0.42 | > 50 µM | – | – | – | – | – | – | –
– | Cc1c(O)cc2c(c1O)C(=O)c1ccccc1C2=O [Rubiadin (6), Rubiadin] | > 50 µM | – | – | > 50 µM | – | > 50 µM | – | > 50 µM | – | – | – | – | – | – | –
– | Cc1ccc2c(c1O)C(=O)c1ccc(O)cc1C2=O [Sorendidiol (5), Sorendidiol] | > 50 µM | 7.10 | – | > 50 µM | – | 27.17 ± 0.07 µM | 29.19 | > 50 µM | – | – | – | – | – | – | –
